Reference: patent US8455515B2, “Substituted 4-phenyltetrahydroisoquinolines, process for their preparation, pharmaceutical compositions and therapeutic use” (Sanofi, priority 2005, dated 2013)
pIC50: −log10 of the molar value. Structures can show the parent of a compound that is named as a salt. Blank lines part the entries; values can stand above or below the molecule they belong to.

Experiments:
imidazoline receptor = settings: cited from earlier work
[1] = test system: adrenergic alpha-2 receptor; settings: cited from earlier work
NHE [2] = molecular target: T1, NHE (Homo sapiens, UniProt P48764); test: recovery of intracellular pH in LAP1 cells expressing NHE (FLIPR, BCECF); format: cell-based; settings: LAP1 cells stably expressing NHE, pH recovery after acidification
T1 sequence (P48764 26-834): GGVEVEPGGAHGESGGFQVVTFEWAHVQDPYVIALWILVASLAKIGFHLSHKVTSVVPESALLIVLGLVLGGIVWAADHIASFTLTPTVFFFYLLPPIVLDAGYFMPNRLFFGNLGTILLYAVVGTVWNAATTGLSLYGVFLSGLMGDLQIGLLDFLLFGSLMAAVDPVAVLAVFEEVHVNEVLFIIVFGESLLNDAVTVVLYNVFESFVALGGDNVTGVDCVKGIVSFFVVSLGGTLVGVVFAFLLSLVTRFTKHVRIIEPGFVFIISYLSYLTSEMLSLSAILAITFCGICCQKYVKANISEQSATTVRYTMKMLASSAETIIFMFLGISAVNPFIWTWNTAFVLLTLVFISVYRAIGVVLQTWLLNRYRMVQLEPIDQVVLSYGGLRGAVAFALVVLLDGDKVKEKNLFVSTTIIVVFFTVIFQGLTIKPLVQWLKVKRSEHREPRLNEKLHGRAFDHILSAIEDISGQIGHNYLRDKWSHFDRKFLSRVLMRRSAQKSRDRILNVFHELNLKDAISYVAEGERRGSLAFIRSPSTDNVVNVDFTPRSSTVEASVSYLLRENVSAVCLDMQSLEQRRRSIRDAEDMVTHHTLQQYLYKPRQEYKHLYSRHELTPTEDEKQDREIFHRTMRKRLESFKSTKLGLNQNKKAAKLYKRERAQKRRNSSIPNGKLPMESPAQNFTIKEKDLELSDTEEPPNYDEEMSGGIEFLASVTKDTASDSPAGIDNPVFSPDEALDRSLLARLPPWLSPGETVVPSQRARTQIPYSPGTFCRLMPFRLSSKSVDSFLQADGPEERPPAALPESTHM
Method: NHE and NHE5 Test Description:
In this test, the recovery in the intracellular pH (pHi) of LAP1 cells, which stably express the different subtypes of the sodium-proton exchanger (NHE), after an acidification was determined. This recovery sets in even under bicarbonate-free conditions in the case of functioning NHE. To this end, the pHi was determined with the pH-sensitive fluorescent dye BCECF (Molecular Probes, Eugene, Oreg., USA; the precursor BCECF-AM is used). The cells were first incubated with BCECF (5 μM BCECF-AM) in NH4Cl buffer (NH4Cl buffer: 115 mM cholineCl, 20 mM NH4Cl, 5 mM KCl, 1 mM CaCl2, 1 mM MgCl2, 20 mM Hepes, 5 mM glucose; a pH of 7.4 is established with 1 M KOH). […] The pH recovery was started by the addition of 90 μl of Na^+-containing buffer (133.8 mM NaCl, 4.7 mM KCl, 1.25 mM CaCl2, 1.25 mM MgCl2, 0.97 mM Na2HPO4, 0.23 mM NaH2PO4, 10 mM Hepes, 5 mM glucose; a pH of 7.4 is established with 1 M NaOH) in the analytical instrument (FLIPR, “Fluorometric Imaging Plate Reader”, Molecular Devices, Sunnyvale, Calif., USA). The BCECF fluorescence was determined at an excitation wavelength of 498 nm and the FLIPR emission filter 1 (band gap from 510 to 570 nm). The subsequent changes in fluorescence were registered for NHE and NHE5 for two minutes as a measure of the pH recovery. […]

hippocampus sections = test: long-term experiments on hippocampus sections (in vitro), weak tetanus early LTP in CA 1; design: species or system rats; settings: rat hippocampus sections, 10 μM
NHE [3] = molecular target: T1, NHE; test: inhibitory action on NHE subtypes: NHE; settings: therapeutically utilizable concentration range
NHE-2 = molecular target: T2, NHE-2 (Homo sapiens, UniProt Q9UBY0); test: inhibitory action on NHE subtypes: NHE-2; settings: therapeutically utilizable concentration range
T2 sequence (Q9UBY0 1-812): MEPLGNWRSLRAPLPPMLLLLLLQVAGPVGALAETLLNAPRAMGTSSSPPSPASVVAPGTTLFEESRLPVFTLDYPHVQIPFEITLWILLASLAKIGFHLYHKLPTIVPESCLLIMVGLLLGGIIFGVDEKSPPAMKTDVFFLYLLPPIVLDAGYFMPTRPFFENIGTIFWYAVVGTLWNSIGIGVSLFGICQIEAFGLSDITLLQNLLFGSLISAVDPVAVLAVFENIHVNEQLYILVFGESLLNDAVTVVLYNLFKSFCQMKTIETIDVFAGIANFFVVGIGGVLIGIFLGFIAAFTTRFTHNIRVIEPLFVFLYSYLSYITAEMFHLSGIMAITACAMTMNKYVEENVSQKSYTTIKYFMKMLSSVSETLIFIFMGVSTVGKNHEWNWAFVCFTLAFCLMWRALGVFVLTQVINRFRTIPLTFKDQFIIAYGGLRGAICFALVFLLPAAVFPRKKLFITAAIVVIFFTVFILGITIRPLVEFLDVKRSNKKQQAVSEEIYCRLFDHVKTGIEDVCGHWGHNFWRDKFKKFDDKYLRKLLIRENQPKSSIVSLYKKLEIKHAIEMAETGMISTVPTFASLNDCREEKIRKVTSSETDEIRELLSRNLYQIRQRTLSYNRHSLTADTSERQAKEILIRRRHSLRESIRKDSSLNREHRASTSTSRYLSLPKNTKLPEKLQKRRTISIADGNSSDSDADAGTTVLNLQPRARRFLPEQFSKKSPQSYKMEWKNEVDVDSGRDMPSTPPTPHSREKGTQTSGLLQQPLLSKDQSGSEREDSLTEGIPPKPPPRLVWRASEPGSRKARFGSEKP

NHE-5 = molecular target: T3, NHE-5 (Homo sapiens, UniProt Q14940); test: inhibitory action on NHE subtypes: NHE-5; settings: therapeutically utilizable concentration range
T3 sequence (Q14940 1-896): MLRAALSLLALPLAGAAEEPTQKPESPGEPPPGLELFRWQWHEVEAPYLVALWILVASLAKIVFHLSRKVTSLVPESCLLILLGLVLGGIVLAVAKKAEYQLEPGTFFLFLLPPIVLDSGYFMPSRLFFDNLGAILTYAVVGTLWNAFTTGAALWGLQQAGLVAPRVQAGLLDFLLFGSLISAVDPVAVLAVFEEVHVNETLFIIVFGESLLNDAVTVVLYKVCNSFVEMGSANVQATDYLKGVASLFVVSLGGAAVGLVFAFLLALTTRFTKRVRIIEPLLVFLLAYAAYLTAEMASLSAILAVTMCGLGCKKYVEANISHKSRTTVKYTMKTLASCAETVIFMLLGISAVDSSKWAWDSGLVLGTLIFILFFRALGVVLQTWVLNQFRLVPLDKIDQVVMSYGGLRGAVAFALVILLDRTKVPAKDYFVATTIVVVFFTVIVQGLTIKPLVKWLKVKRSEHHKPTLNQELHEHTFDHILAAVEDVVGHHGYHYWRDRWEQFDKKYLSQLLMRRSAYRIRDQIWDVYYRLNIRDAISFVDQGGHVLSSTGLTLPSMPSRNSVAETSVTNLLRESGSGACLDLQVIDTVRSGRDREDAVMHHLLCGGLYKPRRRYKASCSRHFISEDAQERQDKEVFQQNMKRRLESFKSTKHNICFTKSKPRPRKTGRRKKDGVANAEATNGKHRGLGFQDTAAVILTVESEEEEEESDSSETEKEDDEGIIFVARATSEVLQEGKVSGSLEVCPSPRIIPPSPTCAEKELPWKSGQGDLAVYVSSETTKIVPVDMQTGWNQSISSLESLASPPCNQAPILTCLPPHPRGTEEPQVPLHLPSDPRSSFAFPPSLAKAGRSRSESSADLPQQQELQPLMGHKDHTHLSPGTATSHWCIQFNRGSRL

NHE-1 = NHE-1 (Homo sapiens, UniProt P19634); test: inhibitory action on NHE subtypes: NHE-1; settings: therapeutically utilizable concentration range
NHE-1, sequence (P19634 whole entry, species assumed): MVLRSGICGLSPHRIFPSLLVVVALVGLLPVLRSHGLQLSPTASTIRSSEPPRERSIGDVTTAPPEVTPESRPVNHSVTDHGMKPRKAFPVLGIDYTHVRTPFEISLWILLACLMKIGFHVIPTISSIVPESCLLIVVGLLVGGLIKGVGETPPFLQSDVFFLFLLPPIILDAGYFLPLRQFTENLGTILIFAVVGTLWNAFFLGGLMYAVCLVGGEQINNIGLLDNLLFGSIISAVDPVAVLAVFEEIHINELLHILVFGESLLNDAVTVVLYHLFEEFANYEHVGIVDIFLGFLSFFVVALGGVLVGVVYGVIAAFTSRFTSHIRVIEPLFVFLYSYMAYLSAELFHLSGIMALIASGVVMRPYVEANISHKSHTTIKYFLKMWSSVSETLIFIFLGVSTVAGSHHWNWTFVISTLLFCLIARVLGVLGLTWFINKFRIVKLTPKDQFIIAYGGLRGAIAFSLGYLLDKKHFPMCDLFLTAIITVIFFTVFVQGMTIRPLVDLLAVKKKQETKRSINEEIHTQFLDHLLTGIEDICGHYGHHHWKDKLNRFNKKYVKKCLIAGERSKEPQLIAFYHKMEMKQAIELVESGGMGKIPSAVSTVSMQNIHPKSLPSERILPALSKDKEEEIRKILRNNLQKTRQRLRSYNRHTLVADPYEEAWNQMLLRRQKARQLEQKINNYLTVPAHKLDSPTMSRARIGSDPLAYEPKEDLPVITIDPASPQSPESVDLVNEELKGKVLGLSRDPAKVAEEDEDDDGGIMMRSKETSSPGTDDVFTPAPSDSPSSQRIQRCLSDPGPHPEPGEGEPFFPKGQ

Compound: CN1Cc2c(Cl)cc(Cl)cc2C(c2ccc(S(=O)(=O)N=C(N)N)cc2)C1 (stereo not shown) (as salt: hydrochloride) [Example 1, N-Diaminomethylene-4-(6,8-dichloro-2-methyl-1,2,3,4-tetrahydro-isoquinolin-4-yl)benzenesulfonamide, dihydrochloride]
melting point: 140 °C (dec.)

Compound: Clc1cccc(Cl)c1N=C1NCCN1 [Clonidine]
affinity for the imidazoline receptor (imidazoline receptor): high affinity
affinity for the adrenergic alpha-2 receptor [1]: high affinity

Compound: CN1Cc2c(Cl)cc(Cl)cc2C(c2ccc(S(=O)(=O)N=C(N)N)cc2)C1 (stereo not shown) [Example 1, N-Diaminomethylene-4-(6,8-dichloro-2-methyl-1,2,3,4-tetrahydro-isoquinolin-4-yl)benzenesulfonamide, dihydrochloride]
pIC50 (NHE [2]): 7.46
intrinsic effect on synaptic transmission (hippocampus sections; before tetanus): no intrinsic effect
potentiation of the EPSP 80 min after the stimulus (hippocampus sections; weak tetanus, 80 min after stimulus (control 113%)): 137 % of the baseline

inhibitory action on NHE (NHE [3]): no relevant inhibitory actions
inhibitory action on NHE-2 (NHE-2): no relevant inhibitory actions
inhibitory action on NHE-5 (NHE-5): no relevant inhibitory actions
inhibitory action on NHE-1 (NHE-1): no relevant inhibitory actions
Compound: Cc1csc(Cl)c1NC1=NCCN1 [tiamenidine]
